Type in all cases: physicochemical
Series [1] is described as follows: pH titration of peptide amphiphiles. Particulars: aqueous solution of 150 mM NaCl and 2.2 mM CaCl2, glutamic acid residues, 10 μM PA. Here is the method:
The titration measurements were conducted on 10 μM peptide amphiphile solutions prepared in 150 mM NaCl and 2.2 mM CaCl2 using milli-Q water. The solution was heated at 80° C. for 30 minutes followed by slow cooling at room temperature. The pH of the solution was then adjusted to 4 using HCl. Finally, an Accumet XL15 pH meter (Fisher Scientific) coupled with an Orion Ross Ultra semi-micro electrode (8103BNUWP, Thermo Scientific) was used to track changes in pH of the solution as NaOH solution was added in small increments. pKa values were obtained from the second inflection points of the first derivative plots of the titration data. The first transition corresponds to neutralization of excess HCl. The calculated pKas reflect the average pKa for all four glutamic acids.

Series [2] can be described thus: Circular dichroism (CD) spectroscopy of pH-triggered self-assembly transition. Particulars: for each concentration (10 μM, 500 μM). As to the method:
The target PA concentration (10 μM) was below the detectable limit of conventional techniques to determine the morphology such as cryoTEM and small-angle X-ray scattering. Consequently, circular dichroism (CD) spectroscopy was initially used to characterize the morphology of these PAs at various pH values. PA 1 was the first molecule synthesized that underwent a self-assembly transition in the desired pH range of 6.6-7.4 at 10 μM PA concentration, in 150 mM NaCl and 2.2 mM CaCl2 (FIG. 2A) (Goldberger, J. E., et al. Angew. Chem. Int. Ed. 2011 50:6292-95). […] The transition pH from random coil to β-sheet occurred at a pH of 6.6. The transition pH was defined as the value at which the ellipticity at 205 nm rises to zero, followed by the appearance of a minimum at 218-220 nm.
Measurements were done on a Jasco-815 Circular Dichroism spectrometer using 1 cm path length quartz cuvettes. […] Double deionized Milli-Q water was used for preparing all solutions. The solutions were then heated at 80° C. for 30 minutes in a water bath and gradually cooled to room temperature. […]
A general note: CD spectra are sensitive to the conformation of chiral molecules.

A short description of series [3]: Transmission electron microscopy (TEM) of self-assembled morphology. The conditions noted are these: 0.5 mM PA. As to the method:
At a pH of 7.75, HCl was added until the pH was 6.1, and the resulting β-sheet CD spectrum was collected within three minutes. An appropriate amount of NaOH was then added to reverse the pH back to 7.70, and random coil behavior was observed again. […] Conventional transmission electron microscopy (TEM) imaging was used to determine the morphology of 10 μM of PA 1, at pH values of 6 and 8 (FIG. 6A, 6B). The TEM grids were prepared within three minutes of pH adjustment. […] This nanofiber diameter corresponds roughly to twice the molecular length based on MM+ molecular simulations, corresponding approximately to the expected diameter of cylindrical fibers consisting of hydrophobically collapsed β-sheets.
TEM images were obtained using solutions of either 10 μM or 0.5 mM peptide amphiphile concentration, as well as 150 mM NaCl and 2.2 mM CaCl2 in Milli-Q water. The solutions were first heated at 80° C. for 30 minutes in a water bath and then gradually cooled to room temperature. This was followed by pH adjustment using either HCl or NaOH. 5 μL of this solution was pipetted onto a Carbon Formvar grid (Electron Microscopy Sciences) and allowed to sit for 2 minutes before being wicked dry using filter paper. For the 10 μM experiments that were performed to determine the time dependence of nanofiber formation, solutions were dropcast onto the grid within three minutes of pH adjustment. […]

Peptide text beside a SMILES is read from it. * marks the point of attachment. Palmitoyl = CCCCCCCCCCCCCCCC(=O)*; DO3A:Gd = Gd-chelated DO3A

In turn, `CCCCCCCCCCCCCCCC(=O)N[C@@H](Cc1ccccc1)C(=O)N[C@@H](C)C(=O)N[C@@H](C)C(=O)N[C@@H](C)C(=O)N[C@@H](CCC(=O)O)C(=O)N[C@@H](CCC(=O)O)C(=O)N[C@@H](CCC(=O)O)C(=O)N[C@@H](CCC(=O)O)C(N)=O` [PA 2] (Palmitoyl-FAAAEEEE-NH2) displayed a pKa in series [1] of 4.94 ± 0.09.

In the case of `CCCCCCCCCCCCCCCC(=O)N[C@H](C(=O)N[C@@H](C)C(=O)N[C@@H](C)C(=O)N[C@@H](C)C(=O)N[C@@H](CCC(=O)O)C(=O)N[C@@H](CCC(=O)O)C(=O)N[C@@H](CCC(=O)O)C(=O)N[C@@H](CCC(=O)O)C(N)=O)C(C)C` [PA 3] (Palmitoyl-VAAAEEEE-NH2), the pKa in series [1] is 4.86 ± 0.11.

As for “Palmitoyl-VAAAEEEEK(DO3A:Gd)-NH2 (also: Gd complex of DO3A) [PA 6]”, the “nanofiber to micelle transition pH, lower than PA 5 by” value in series [2] is 0.4 units.

`CCCCCCCCCCCCCCCC(=O)N[C@@H](Cc1ccc(O)cc1)C(=O)N[C@@H](C)C(=O)N[C@@H](C)C(=O)N[C@@H](C)C(=O)N[C@@H](CCC(=O)O)C(=O)N[C@@H](CCC(=O)O)C(=O)N[C@@H](CCC(=O)O)C(=O)N[C@@H](CCC(=O)O)C(N)=O` [PA 4] (Palmitoyl-YAAAEEEE-NH2) returned a pKa in series [1] of 4.7 ± 0.1.

With “Palmitoyl-IAAAEEEEK(DO3A:Gd)-NH2 (also: Gd complex of DO3A) [PA 5]”, in series [3] (pH 4), the diameter of nanofibers came out at 11.9±1.6 nm. Besides, in series [3] (pH 10), the “diameter of spherical micelles” value is reported as 10.0±1.2 nm.

In series [1], `CCCCCCCCCCCCCCCC(=O)N[C@H](C(=O)N[C@@H](C)C(=O)N[C@@H](C)C(=O)N[C@@H](C)C(=O)N[C@@H](CCC(=O)O)C(=O)N[C@@H](CCC(=O)O)C(=O)N[C@@H](CCC(=O)O)C(=O)N[C@@H](CCC(=O)O)C(N)=O)[C@@H](C)CC` [PA 1] (Palmitoyl-IAAAEEEE-NH2) had a pKa of 4.66 ± 0.1.

For orientation: pKa means the negative logarithm of the acid dissociation constant. Lower therefore signals a stronger acid or weaker base.

The record behind these values is US20140363378A1, “SELF-ASSEMBLING MOLECULES THAT ACCUMULATE IN ACIDIC TUMOR MICROENVIRONMENTS” (The Ohio State University, priority 2012, published 2014).
